Assays:
[1] = background statement; cited from earlier work
[2] = background statement; cited from earlier work; remark: listed apart in the source
[3] = Stability test on the fulvestrant suspensions of Examples 1-3: related substances (EP10.0 method); assay type: physicochemical; conditions: starting material
Method: The fulvestrant suspensions prepared in Examples 1 and 2 were stored in a refrigerator at 4° C. for 14 days or 10 days, and tested for related substances.
The fulvestrant suspension prepared in Example 3 was placed at −20° C., 4° C., 25° C., 40° C. or 60° C., and tested for related substances, the morphology, particle size distribution and crystalline form changes of the fulvestrant solid particles. The test for the related substances was performed according to the EP10.0 method.

Main peak, peak area [3]: 99.84%
RRT 0.51, peak area [3]: 0.01%
RRT 0.88, peak area [3]: 0.05%
RRT 1.19, peak area [3]: 0.04%
RRT 2.92, peak area [3]: 0.03%
Total impurities, peak area [3]: 0.05%
SMILES: C[C@]12CC[C@@H]3c4ccc(O)cc4C[C@@H](CCCCCCCCC[S+]([O-])CCCC(F)(F)C(F)(F)F)[C@H]3[C@@H]1CC[C@@H]2O (some centres unmarked) [Fulvestrant, 7-(9-(4,4,5,5,5-pentafluoropentylsulfinyl)nonyl)estra-1,3,5(10)-triene-3,17-diol]
water solubility [1]: very low
oral bioavailability [2]: low

From patent US12377049B2, “Fulvestrant pharmaceutical composition, preparation method therefor, and application thereof” (SHANGHAI BOCIMED PHARMACEUTICAL CO., LTD., priority 2019, dated 2025)
